Earlier results, collected in patent US6773610B2, “Method for controlling biofilm” (priority 1999, dated 2004).

Tested on: bacteria and viruses
Settings: versus chlorine

In the case of O=[O+][O-] [Ozone], the “Speed of deactivation of bacteria and viruses relative to chlorine” value is given as 3125 times faster.
